From patent US20140094424A1, “MICROBICIDAL COMPOSITIONS AND METHODS OF PRODUCTION USE THEREOF” (priority 2011, published 2014)

How the values were obtained:
[1] = tested on: Aspergillus glaucus- DMO (Q); experiment: MBC (minimum bactericidal concentration) test in Wash NEXT reagent; assay type: cell-based; conditions: for total kill at % preservative (MBC): at 14 days
Method: The stock organisms were thawed and subbed prior to beginning the MBC test. Molds were subbed to SDA plates one week before, and the bacteria were subbed to TAT agar plates 24 hours prior to the start of the test. All plates were incubated at 32 degrees C.
For the molds, each organism was inoculated into 40 ml sterile saline in a centrifuge tube to create a density of MacFarland #5. Two serial dilutions of 1:100 were then made, resulting in 10^−2 and 10^−4 concentrations. Each dilution was vortexed before it was sampled, and sterile Eppendorf pipette tips were used to make each transfer. The 10^−4 dilution was spiral plated to yield the initial inoculum concentration.
MBC trays were set up with the prepared test reagent. Using a Matrix pipettor, 100 μl aliquots of reagent were distributed into the wells, diluting the amount of preservative from 100% to 10% increments, using unpreserved reagent as the diluent. In one row, 100% non-preserved reagent acted as a positive control and served as a benchmark for a full mat of growth. In well #12H, 100 μl unpreserved reagent was pipetted, and this well was not inoculated with organisms, as it served as the negative control. Once all of the trays were prepared, the prepared bacteria/mold suspensions were poured into the MBC inoculating trays. These were placed onto the reagent trays, and 0.01 ml inoculum was introduced into the 100 μl of reagent in each well.
This was done by dipping a sterile cotton swab into each well, and absorbing all of the liquid in the well. The swab was rolled onto a TAT agar plate ensuring that the entire swab touches the agar. Plates ware incubated at 32 degrees C. for 48 hours to 7 days, depending on the organism. Observations for growth were performed by a scoring matrix using + for a full mat, +/− for some growth, a numerical value for an actual colony count, and—for no growth.
Below are tables that contain the data obtained in Example 1. The MBC test is scored by (+) indicating a full grown mat of organisms, equivalent to the organisms in the unpreserved reagent. (+/−) indicates there is some kill evident disturbing that mat or bringing the quantities down to an almost countable level. An actual number is the actual number of colonies growing at that concentration of preservative. (−) indicates no growth found. The MBC trays were stored at room temperature for the entire test.
The materials and methods and analysis of the MBC test were the same as in Example 1.

[2] = tested on: creatinine biosensor (creatinine amidohydrolase, creatinine amidinohydrolase and sarcosine oxidase); experiment: Effect on enzymatic activity of a creatinine biosensor (rate of O2% decrease); assay type: biochemical; conditions: 210 μM gentamicin, FIG. 1
Method: In FIG. 1, the effects of various concentrations of gentamicin on the enzymatic activity of a creatinine biosensor (comprising the three enzymes creatinine amidohydrolase, creatinine amidinohydrolase and sarcosine oxidase) were determined. In FIG. 2, the effects of various concentrations of propionate on the enzymatic activity of a creatinine biosensor (comprising three enzymes) were determined.
In both instances, a decreasing rate of O2% is an indicator of enzyme activity; the faster the rate of O2% decrease, the higher enzymatic activity is.

[N-]=[N+]=[N-] [Sodium Azide, sodium azide]
+: MBC test growth score ([1]; 10% preservative, 8 hour) | MBC test growth score ([1]; 10% preservative, 24 hour) | MBC test growth score ([1]; 10% preservative, 48 hour) | MBC test growth score ([1]; 10% preservative, 72 hour) | MBC test growth score ([1]; 10% preservative, 7 day) | MBC test growth score ([1]; 20% preservative, 8 hour) | MBC test growth score ([1]; 20% preservative, 24 hour) | MBC test growth score ([1]; 20% preservative, 48 hour) | MBC test growth score ([1]; 20% preservative, 72 hour) | MBC test growth score ([1]; 20% preservative, 7 day) | MBC test growth score ([1]; 30% preservative, 8 hour) | MBC test growth score ([1]; 30% preservative, 24 hour) | MBC test growth score ([1]; 30% preservative, 48 hour) | MBC test growth score ([1]; 30% preservative, 72 hour) | MBC test growth score ([1]; 30% preservative, 7 day) | MBC test growth score ([1]; 40% preservative, 8 hour) | MBC test growth score ([1]; 40% preservative, 24 hour) | MBC test growth score ([1]; 40% preservative, 48 hour) | MBC test growth score ([1]; 40% preservative, 72 hour) | MBC test growth score ([1]; 40% preservative, 7 day) | MBC test growth score ([1]; 50% preservative, 8 hour) | MBC test growth score ([1]; 50% preservative, 24 hour) | MBC test growth score ([1]; 50% preservative, 48 hour) | MBC test growth score ([1]; 50% preservative, 72 hour) | MBC test growth score ([1]; 50% preservative, 7 day) | MBC test growth score ([1]; 60% preservative, 8 hour) | MBC test growth score ([1]; 60% preservative, 24 hour) | MBC test growth score ([1]; 60% preservative, 48 hour) | MBC test growth score ([1]; 60% preservative, 72 hour) | MBC test growth score ([1]; 60% preservative, 7 day) | MBC test growth score ([1]; 70% preservative, 8 hour) | MBC test growth score ([1]; 70% preservative, 24 hour) | MBC test growth score ([1]; 70% preservative, 48 hour) | MBC test growth score ([1]; 70% preservative, 72 hour) | MBC test growth score ([1]; 70% preservative, 7 day) | MBC test growth score ([1]; 80% preservative, 8 hour) | MBC test growth score ([1]; 80% preservative, 24 hour) | MBC test growth score ([1]; 80% preservative, 48 hour) | MBC test growth score ([1]; 80% preservative, 72 hour) | MBC test growth score ([1]; 80% preservative, 7 day) | MBC test growth score ([1]; 90% preservative, 8 hour) | MBC test growth score ([1]; 90% preservative, 24 hour) | MBC test growth score ([1]; 90% preservative, 48 hour) | MBC test growth score ([1]; 90% preservative, 72 hour) | MBC test growth score ([1]; 90% preservative, 7 day) | MBC test growth score ([1]; 100% preservative, 8 hour) | MBC test growth score ([1]; 100% preservative, 24 hour) | MBC test growth score ([1]; 100% preservative, 48 hour) | MBC test growth score ([1]; 100% preservative, 72 hour) | MBC test growth score ([1]; 100% preservative, 7 day)
No kill @ 100%: total kill at % preservative (MBC) ([1]; listed as Na Azide)
+/−: MBC test growth score ([1]; 10% preservative, 14 day) | MBC test growth score ([1]; 20% preservative, 14 day) | MBC test growth score ([1]; 30% preservative, 14 day) | MBC test growth score ([1]; 40% preservative, 14 day) | MBC test growth score ([1]; 50% preservative, 14 day) | MBC test growth score ([1]; 60% preservative, 14 day) | MBC test growth score ([1]; 70% preservative, 14 day) | MBC test growth score ([1]; 80% preservative, 14 day) | MBC test growth score ([1]; 90% preservative, 14 day) | MBC test growth score ([1]; 100% preservative, 14 day)

Cc1cc(NS(=O)(=O)c2ccc(N)cc2)no1 [Sulfamethoxazole, sulfamethoxazole]
No kill @ 100%: total kill at % preservative (MBC) [1]

gentamicin
10: MBC test growth score ([1]; 90% preservative, 7 day)
18: MBC test growth score ([1]; 100% preservative, 72 hour)
36: MBC test growth score ([1]; 30% preservative, 14 day)
29: MBC test growth score ([1]; 50% preservative, 7 day)
22: MBC test growth score ([1]; 90% preservative, 72 hour)
5: MBC test growth score ([1]; 100% preservative, 7 day)
16: MBC test growth score ([1]; 80% preservative, 7 day)
+/−: MBC test growth score ([1]; 10% preservative, 48 hour) | MBC test growth score ([1]; 10% preservative, 72 hour) | MBC test growth score ([1]; 10% preservative, 7 day) | MBC test growth score ([1]; 10% preservative, 14 day) | MBC test growth score ([1]; 20% preservative, 48 hour) | MBC test growth score ([1]; 20% preservative, 72 hour) | MBC test growth score ([1]; 20% preservative, 7 day) | MBC test growth score ([1]; 20% preservative, 14 day) | MBC test growth score ([1]; 30% preservative, 48 hour) | MBC test growth score ([1]; 30% preservative, 72 hour) | MBC test growth score ([1]; 30% preservative, 7 day) | MBC test growth score ([1]; 40% preservative, 48 hour) | MBC test growth score ([1]; 40% preservative, 72 hour) | MBC test growth score ([1]; 40% preservative, 7 day) | MBC test growth score ([1]; 50% preservative, 48 hour) | MBC test growth score ([1]; 50% preservative, 72 hour) | MBC test growth score ([1]; 60% preservative, 48 hour) | MBC test growth score ([1]; 60% preservative, 72 hour) | MBC test growth score ([1]; 70% preservative, 48 hour) | MBC test growth score ([1]; 70% preservative, 72 hour) | MBC test growth score ([1]; 80% preservative, 48 hour) | MBC test growth score ([1]; 80% preservative, 72 hour) | MBC test growth score ([1]; 90% preservative, 48 hour) | MBC test growth score ([1]; 100% preservative, 48 hour)
25: MBC test growth score ([1]; 60% preservative, 7 day)
20: MBC test growth score ([1]; 70% preservative, 14 day)
21: MBC test growth score ([1]; 70% preservative, 7 day)
did not inactivate enzymatic activity: effect on enzymatic activity of the three enzymes in the creatinine biosensor [2]
14: MBC test growth score ([1]; 80% preservative, 14 day)
35: MBC test growth score ([1]; 40% preservative, 14 day)
28: MBC test growth score ([1]; 50% preservative, 14 day)
9: MBC test growth score ([1]; 90% preservative, 14 day)
26: MBC test growth score ([1]; 60% preservative, 14 day)
+: MBC test growth score ([1]; 10% preservative, 8 hour) | MBC test growth score ([1]; 10% preservative, 24 hour) | MBC test growth score ([1]; 20% preservative, 8 hour) | MBC test growth score ([1]; 20% preservative, 24 hour) | MBC test growth score ([1]; 30% preservative, 8 hour) | MBC test growth score ([1]; 30% preservative, 24 hour) | MBC test growth score ([1]; 40% preservative, 8 hour) | MBC test growth score ([1]; 40% preservative, 24 hour) | MBC test growth score ([1]; 50% preservative, 8 hour) | MBC test growth score ([1]; 50% preservative, 24 hour) | MBC test growth score ([1]; 60% preservative, 8 hour) | MBC test growth score ([1]; 60% preservative, 24 hour) | MBC test growth score ([1]; 70% preservative, 8 hour) | MBC test growth score ([1]; 70% preservative, 24 hour) | MBC test growth score ([1]; 80% preservative, 8 hour) | MBC test growth score ([1]; 80% preservative, 24 hour) | MBC test growth score ([1]; 90% preservative, 8 hour) | MBC test growth score ([1]; 90% preservative, 24 hour) | MBC test growth score ([1]; 100% preservative, 8 hour) | MBC test growth score ([1]; 100% preservative, 24 hour)
4: MBC test growth score ([1]; 100% preservative, 14 day)
